Laboratory results from BindingDB's records for doi:10.7270/Q23F4N3R (Burnham Center For Chemical Genomics, 2011).

Assay: HK1 enzyme inhibitors – biochemical, selectivity assay for HKDC1 inhibitor project, dose response (AID 504763)
[1] = inactive by the depositor's call

SMILES	IC50	IC50 [1]
O=C1C=CC(=O)C(C2=C3C(=O)N(CCc4ccccc4)CC(=O)N3CCC2)=C1 [SMR000226463]	6.85 µM	–
NS(=O)(=O)c1ccc(N=Nc2c(=O)[nH]n3c(=O)c4c([nH]c23)CCCC4)cc1 [SMR000231775]	12.4 µM	–
O=C1NC(=S)N(c2ccc(F)cc2)C(=O)C1=Cc1ccoc1 [SMR000270574]	> 80 µM	–
O=C1C=C(NCc2ccccc2)c2ccccc2C1=O [SMR000282064]	1.9 µM	–
N=C(NCc1ccc2c(c1)OCO2)NC(=O)c1ccccc1 [SMR000293067]	> 80 µM	–
Oc1ccc(O)c(Cc2nc3ccccc3[nH]2)c1 [SMR000298430]	7.03 µM	–
O=C(O)c1ccc(NC2=CC(=NS(=O)(=O)c3ccccc3)c3ccccc3C2=O)cc1 [SMR000313157]	1.63 µM	–
CC(=O)Nc1ccc(NC2=CC(=NS(=O)(=O)c3cccs3)c3ccccc3C2=O)cc1 [SMR000313158]	4.2 µM	–
O=C(/C=C/c1cccs1)Nc1scc(-c2ccccc2)c1C(=O)O [SMR000364116]	> 80 µM	–
O=C(O)c1ccc2ncsc2c1 [SMR000372672]	> 80 µM	–
Cn1c2ccccc2c(=O)c2c(=O)n(-c3ccc(F)cc3)c(-c3cccs3)nc21 [SMR000439524]	2.5 µM	–
Cc1nc2c(c(=O)c3ccccc3n2C)c(=O)n1-c1ccc(F)cc1 [SMR000439525]	8.78 µM	–
CC(C)c1nc2oc3c(NCCO)ncnc3c2c2c1COC(C)(C)C2 [SMR000439744]	2.82 µM	–
CC[C@H](C)C=C(C)/C=C/C1=CC2=C(Cl)C(=O)[C@@](C)(OC(C)=O)C(=O)C2=CO1 [SMR000470870]	> 80 µM	–
O=C1C=C(N2CCOCC2)c2ccccc2C1=O [SMR000516584]	1.27 µM	–
COc1cc(/C=C2/C(=O)NN(c3ccc(Cl)c(Cl)c3)C2=O)cc([N+](=O)[O-])c1O [SMR000554908]	> 80 µM	–
CCc1ccc(S(=O)(=O)N=C2C=C(Nc3cccc(C(=O)O)c3)C(=O)c3ccccc32)cc1 [SMR000620248]	5.83 µM	–
COc1ccc2cc(CCNC(=O)c3ccc(S(=O)(=O)N4CCCC4)cc3)c(O)nc2c1 [SMR000805966]	7.34 µM	–

SMILES	IC50	IC50 [1]
Cc1cccc2c1=NC(=O)C=2NNC(=O)c1ccc(NS(=O)(=O)c2cccs2)cc1 [SMR001246714]	52.6 µM	–
O=C1C=CC(CN=Nc2ccc([N+](=O)[O-])cn2)C(O)=C1 (stereo unspecified) [SMR001527138]	> 80 µM	–
COC1=CC(=O)C(OC)=C(OC)C1=O [SMR001527280]	6.46 µM	–
C=c1c(NC(C)=O)c(O)c2nc3n(c2c1O)CCC=3OC(=O)COC [SMR001565176]	2.15 µM	–
COC1=CC(=O)C(C2CC(=O)c3c(O)cc(O)cc3O2)=CC1=O (stereo unspecified) [SMR001565628]	–	35.9 µM
CN(C)c1ccc(Cc2cc3c(O)ccc(O)c3cc(Cc3ccc(N(C)C)cc3)c2=O)cc1 [SMR001565845]	–	73.6 µM
COC(=O)c1ccc(CCc2cc(O)c(Br)cc2O)cc1 [SMR001565911]	–	23.2 µM
Nc1ccc(S(=O)(=O)c2cc(O)c3ccccc3c2O)cc1 [SMR001570953]	–	59.9 µM
CC(OC(=O)c1cc(O)c2ccccc2c1O)C(=O)Nc1ccc(C(N)=O)cc1 (stereo unspecified) [[1-[(4-aminocarbonylphenyl)amino]-1-oxidanylidene-propan-2-yl] 1,4-bis(oxidanyl)naphthalene-2-carboxylate]	> 80 µM	–
O=C(COC(=O)c1n[nH]c2ccccc12)c1cccc(Br)c1 [[2-(3-bromophenyl)-2-oxoethyl] 1H-indazole-3-carboxylate]	> 80 µM	–
COc1ccc(S(=O)(=O)Nc2cc(SCC(=O)O)c(O)c3ccccc23)cc1 [[(1-hydroxy-4-{[(4-methoxyphenyl)sulfonyl]amino}-2-naphthyl)thio]acetic acid]	–	63.3 µM
CCOC(=O)c1c(-n2c(C)cc(C=C3C(=O)NC(=S)NC3=O)c2C)sc2c1CCCC2 [ethyl 2-{3-[(4,6-dioxo-2-thioxotetrahydro-5(2H)-pyrimidinylidene)methyl]-2,5-dimethyl-1H-pyrrol-1-yl}-4,5,6,7-tetrahydro-1-benzothiophene-3-carboxylate]	> 80 µM	–
CCOC(=O)C1=C(Cc2ccc(F)cc2)C(=O)c2ccccc2C1=O [ethyl 3-(4-fluorobenzyl)-1,4-dioxo-1,4-dihydro-2-naphthalenecarboxylate]	–	25.4 µM
CCOC(=O)C1=C(Cc2ccc(Cl)cc2)C(=O)c2ccccc2C1=O [ethyl 3-[(4-chlorophenyl)methyl]-1,4-bis(oxidanylidene)naphthalene-2-carboxylate]	–	22.2 µM
CCOC(=O)c1ccc(NC(=O)CSc2ccc(-c3ccccn3)nn2)cc1 [ethyl 4-[2-(6-pyridin-2-ylpyridazin-3-yl)sulfanylethanoylamino]benzoate]	2.15 µM	–
COC(=O)C[C@]1(C(=O)OC)CN(C#N)N(c2ccc(Cl)cc2)C12c1ccccc1-c1ccccc12 [methyl 1-(4-chlorophenyl)-2-cyano-4-(2-methoxy-2-oxoethyl)spiro[pyrazolidine-5,9'-(9'H)-fluorene]-4-carboxylate]	> 80 µM	–
COC(=O)c1ccccc1NC1=CC(=NS(=O)(=O)c2cccs2)c2ccccc2C1=O [methyl 2-[[(4E)-1-oxidanylidene-4-thiophen-2-ylsulfonylimino-naphthalen-2-yl]amino]benzoate]	–	57 µM
O=C(O)c1ccccc1-c1c2cc(I)c(=O)c(I)c-2oc2c(I)c(O)c(I)cc12 [sodium;2-(2,4,5,7-tetraiodo-3-oxido-6-oxo-9-xanthenyl)benzoate]	47.2 µM	–
